One data set deals with QPCTL (Homo sapiens (Human), UniProt Q9NXS2). The data set is described as follows: Assay A: biochemical QPCTL activity assay (MALDI-TOF MS). Particulars: read-out: Inhibition of QPCTL: IC50. The procedure, abridged: (§1)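 Compounds preincubated 10 min at 24 °C with enzyme in 20 mM Tris pH 7.5, 0.1 mM TCEP, 0.01% BSA, 0.001% Tween20; CD47 peptide substrate (final 10 μM for QPCTL, 20 μM for QPCT) reacted 40 min at 24 °C. Pyroglutamate product read by MALDI-TOF MS versus internal standard, normalized to controls; four-parameter fit.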
Sequence of QPCTL (Q9NXS2 whole entry): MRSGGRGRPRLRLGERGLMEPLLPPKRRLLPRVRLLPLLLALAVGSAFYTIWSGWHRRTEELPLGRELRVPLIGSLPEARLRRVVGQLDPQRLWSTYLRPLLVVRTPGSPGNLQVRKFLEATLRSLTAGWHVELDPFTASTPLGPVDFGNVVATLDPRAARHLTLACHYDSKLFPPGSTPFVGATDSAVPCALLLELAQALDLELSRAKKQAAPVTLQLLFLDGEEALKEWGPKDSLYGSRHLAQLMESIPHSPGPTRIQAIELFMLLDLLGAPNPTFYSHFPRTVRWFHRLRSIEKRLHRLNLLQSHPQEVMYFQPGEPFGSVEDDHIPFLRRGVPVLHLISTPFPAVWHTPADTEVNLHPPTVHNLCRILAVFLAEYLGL

For the next data set, the target named is QPCT (Homo sapiens (Human), UniProt Q16769). The data set is described as follows: Assay A: biochemical QPCT activity assay (MALDI-TOF MS). Conditions: read-out: Inhibition of QPCT: IC50. The procedure, abridged:
as §1

Data set [1] concerns SIRPα signalling induced by Raji cells. The data set is described as follows: Assay B: SIRPα signalling assay using Raji cells. It counts as cell-based, human. An outline of the steps:
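SIRPα signalling induced by Raji cells in a PathHunter reporter line, read as β-galactosidase complementation luminescence. Detection reagent 1 added for 15 min, then reagent 2 for 60 min in the dark, both at room temperature.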

Data set [2] relates to SIRPα signalling induced by A549 cells. The data set can be described thus: Assay B: SIRPα signalling assay using A549 cells. It counts as cell-based, human. The procedure, abridged:
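5000 Raji or A549 cells were cultured 48 h at 37 °C with serially diluted compound (DMSO), then 15000 Jurkat PathHunter SIRPα reporter cells were added for 5 h. Beta-galactosidase luminescence was developed at RT, and IC50 obtained by 4-parameter sigmoidal fit.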

The test system of a further data set is Caco-2 cells. The data set is described as follows: Assay C: permeability in CACO-2 cells. It counts as in vitro ADME. Particulars: for Permeability A-B: Caco-2, apical to basolateral; for efflux ratio: Caco-2. An outline of the steps:
(§2)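 Compound in transport solution applied to apical or basolateral donor side for A-B or B-A permeability, 3 filter replicates. Donor sampled at start and end, receiver at intervals up to 2 hours with volume replaced; concentrations by HPLC-MS/MS or scintillation counting.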
(Caco-2 monolayers are a common model of the intestinal barrier.)

Data set [3] has as its target human glutaminyl cyclase (hQC) (Homo sapiens (Human), UniProt Q16769). Particulars: J-S, NCB 2015 supplementary information; read-out: IC50 on isolated hQC; cited from earlier work.
The nature of data set [4]: Assay C: permeability in CACO-2 cells. It counts as in vitro ADME. Particulars: human, pH 7.2; for Papp A→B / efflux ratio: compounds of the invention, Table 7. An outline of the steps:
as §2

Data set [5] has as its target glutamine acyl cyclase isoenzyme (Homo sapiens (Human), UniProt Q9NXS2). Particulars: given in CN 114874186; cited from earlier work.
[6] abbreviates: compounds of the invention, Table 2.
[7] abbreviates: compounds of the invention, Table 7.
[8] abbreviates: prior art compounds, Table 5, read-out: Inhibition of SIRPα signalling induced by Raji cells: IC50.
Setting [9] is: prior art compounds, Table 5, read-out: Inhibition of SIRPα signalling induced by A549 cells: IC50.
Setting [10] is: Homo sapiens, compounds of the invention, Table 4, read-out: Inhibition of SIRα signalling induced by Raji cells: IC50.
Where [11] appears, read: Homo sapiens, prior art compounds, Table 5, read-out: Inhibition of SIRPα signalling induced by Raji cells: IC50.
[12] abbreviates: Homo sapiens, compounds of the invention, Table 4, read-out: Inhibition of SIRα signalling induced by A549 cells: IC50.
[13] abbreviates: Homo sapiens, prior art compounds, Table 5, read-out: Inhibition of SIRPα signalling induced by A549 cells: IC50.

Read-outs that look alike come from different tables or passages of the source.

Sequence of QPCT (Q16769 29-361): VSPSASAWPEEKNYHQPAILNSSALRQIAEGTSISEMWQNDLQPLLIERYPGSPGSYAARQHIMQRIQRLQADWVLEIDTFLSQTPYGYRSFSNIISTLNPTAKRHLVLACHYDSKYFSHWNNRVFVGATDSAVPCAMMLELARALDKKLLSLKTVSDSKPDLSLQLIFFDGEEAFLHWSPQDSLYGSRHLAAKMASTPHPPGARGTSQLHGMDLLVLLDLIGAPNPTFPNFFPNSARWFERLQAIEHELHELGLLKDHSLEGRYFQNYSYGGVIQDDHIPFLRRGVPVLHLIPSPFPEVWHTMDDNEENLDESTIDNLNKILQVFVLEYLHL
Sequence of glutamine acyl cyclase isoenzyme (Q9NXS2 whole entry): as the sequence (Q9NXS2 whole entry) above
Sequence of human glutaminyl cyclase (hQC) (Q16769 29-361): as the sequence (Q16769 29-361) above

`CNC(=O)c1cncc(-c2cccc(C#N)c2N2CCC(c3nncn3C)CC2)c1` [Example 80]: the IC50 on QPCTL (setting [6]) worked out at 2 nM; on QPCT (setting [6]), 11 nM; in data set [1] (compounds of the invention, Table 4, read-out: Inhibition of SIRα signalling induced by Raji cells: IC50), 336 nM; in data set [2] (compounds of the invention, Table 4, read-out: Inhibition of SIRα signalling induced by A549 cells: IC50) it was 176 nM. The “Permeability A-B” value in the data set with Caco-2 cells (setting [7]) is 0.2 10^−6 cm/s. Further, the “efflux ratio” value in the data set with Caco-2 cells (setting [7]) is reported as 37.8.
Regarding `Cn1cnnc1C1CCN(c2ncccc2-c2ccc(F)nc2)CC1` [SEN177, reference compound], the IC50 in data set [1] (setting [8]) was determined as 1360 nM; in data set [2] (setting [9]), 214 nM. Besides, in the data set on Caco-2 cells (prior art compounds, Table 8), the “Permeability A-B” value is on record as 11.0 10^−6 cm/s.
With `Cn1cnnc1C1CCN(c2ncccc2-c2cccnc2)CC1` [SEN180, reference compound], the IC50 on QPCT (prior art compounds, Table 3) was 176 nM; in data set [1] (setting [8]), 2970 nM; in data set [2] (setting [9]) it was 868 nM; in data set [3], 170 nM. The “Permeability A-B” value with Caco-2 cells (prior art compounds, Table 8) is 4.2 10^−6 cm/s.
Turning to `COCCOc1ncc(-c2cccc(C#N)c2N2CCC(c3nncn3C)CC2)cn1` [compound 3, reference compound], the IC50 was 11 nM at QPCTL (setting [6]); 51 nM on QPCT (setting [6]); 629 nM in data set [1] (setting [10]); 2740 nM in data set [1] (setting [11]); 290 nM in data set [2] (setting [12]); 1400 nM in data set [2] (setting [13]). This compound also registered a Papp A→B in data set [4] (Caco-2, apical to basolateral) of 0.6 ×10⁻⁶ cm/s. The efflux ratio is 41.8 in data set [4] (Caco-2) and 0.8 in the data set on Caco-2 cells (prior art compounds, Table 8). Further, the “Permeability A-B” value with Caco-2 cells (prior art compounds, Table 8) is reported as 93 10^−6 cm/s.
Take `Cn1cnnc1C1CCN(c2c(C#N)cccc2-c2cncc(-n3cccn3)c2)CC1` [compound 6, reference compound]: the IC50 turned out to be 1 nM on QPCTL (setting [6]); 1 nM on QPCTL (prior art compounds, Table 3); 7 nM on QPCT (setting [6]); 220 nM in data set [1] (setting [10]); 9 nM in data set [1] (setting [11]); 26 nM in data set [2] (setting [12]). In addition, the IC50 in data set [2] (setting [13]) stood at 14 nM. In addition, in data set [4] (Caco-2, apical to basolateral), the Papp A→B was determined as 3.9 ×10⁻⁶ cm/s. Further, the efflux ratio in data set [4] (Caco-2) came to 16.9; in the data set with Caco-2 cells (prior art compounds, Table 8) it was 65.0. The “Permeability A-B” value with Caco-2 cells (prior art compounds, Table 8) was 0.2 10^−6 cm/s.
For the compound `Cn1cnnc1C1CCN(S(=O)(=O)c2cccc(Nc3ccc(OCc4ccccc4)nc3)c2)CC1` [compound 23, reference compound], the IC50 on QPCTL (prior art compounds, Table 3) is 4770 nM; at QPCT (prior art compounds, Table 3), 1840 nM; in data set [1] (setting [11]), > 10000 nM; in data set [2] (setting [13]), > 10000 nM; in data set [5], 11.3 nM. In addition, the Papp A→B at 2 h in data set [4] (Caco-2, apical to basolateral, prior art compounds, Table 8) worked out at 3.5 ×10⁻⁶ cm/s. Besides, the efflux ratio at 2 h in data set [4] (Caco-2, prior art compounds, Table 8) came to 17.6.
Consider `Cc1cc(F)ncc1-c1cccc(C#N)c1N1CCC(F)(c2nncn2C)CC1` [compound 83], for which the IC50 on QPCTL (setting [6]) worked out at 1 nM; at QPCT (setting [6]) it was 3 nM; in data set [1] (setting [10]) it was 102 nM; in data set [2] (setting [12]), 47 nM. Besides, the Papp A→B in data set [4] (Caco-2, apical to basolateral) was determined as 55 ×10⁻⁶ cm/s. In data set [4] (Caco-2), the efflux ratio came out at 1.3.
Consider `Cn1cnnc1C1(F)CCN(c2c(C#N)cccc2-c2cnc3nc(-c4cccc(Cl)c4)ccn23)CC1` [compound 84], for which the IC50 is 3 nM at QPCTL (setting [6]), 6 nM at QPCT (setting [6]), 91 nM in data set [1] (setting [10]) and 63 nM in data set [2] (setting [12]). In data set [4] (Caco-2, apical to basolateral), this compound displayed a Papp A→B of 33 ×10⁻⁶ cm/s. For the same compound, the efflux ratio in data set [4] (Caco-2) came to 1.8.
In the case of `Cn1cnnc1C1(F)CCN(c2c(C#N)cccc2-c2cnc(F)cc2Cl)CC1` [compound 85], the IC50 is 3 nM on QPCTL (setting [6]), 4 nM at QPCT (setting [6]), 70 nM in data set [1] (setting [10]) and 80 nM in data set [2] (setting [12]). The efflux ratio in data set [4] (Caco-2) stood at 1.8.
Consider `Cn1cnnc1C1(F)CCN(c2c(C#N)cccc2-c2cnc3nn(C(C)(C)C)c(Cl)c3c2)CC1` [compound 86], for which the IC50 at QPCTL (setting [6]) amounted to 1 nM; on QPCT (setting [6]) it was 1 nM; in data set [1] (setting [10]) it was 13 nM; in data set [2] (setting [12]) it was 23 nM. In data set [4] (Caco-2, apical to basolateral), this compound came in with a Papp A→B of 18 ×10⁻⁶ cm/s. For the same compound, in data set [4] (Caco-2), the efflux ratio was 1.6.
As to `Nc1ncc(C2CCN(c3ncccc3-c3ccc(F)nc3)CC2)s1` [compound 1094, reference compound], the IC50 at QPCTL (prior art compounds, Table 3) is 111 nM; on QPCT (prior art compounds, Table 3), 1710 nM; in data set [1] (setting [8]), 3240 nM; in data set [2] (setting [9]), 3060 nM. Further, the “Permeability A-B” value in the data set on Caco-2 cells (prior art compounds, Table 8) is 68 10^−6 cm/s. The “efflux ratio” value with Caco-2 cells (prior art compounds, Table 8) turned out to be 0.5.
As to `Nc1nnc(C2CCN(c3ncccc3-c3ccc(F)nc3)CC2)s1` [compound 1095, reference compound], the IC50 on QPCTL (prior art compounds, Table 3) was found to be 13 nM; at QPCT (prior art compounds, Table 3) it was 260 nM; in data set [1] (setting [8]), 2200 nM; in data set [2] (setting [9]), 259 nM. The “Permeability A-B” value in the data set with Caco-2 cells (prior art compounds, Table 8) was 73 10^−6 cm/s. The “efflux ratio” value with Caco-2 cells (prior art compounds, Table 8) stood at 1.0.

As usually defined, the IC50 is the midpoint of a concentration-inhibition curve. Broadly, the efflux ratio is a quotient of directional permeabilities that is used to spot active efflux. By Papp A→B is commonly meant how fast a substance crosses the layer from the apical side. Low values mean poor permeation, high ones ready permeation.

These data come from US20240246981A1, “[…] DERIVATIVES AS INHIBITORS OF […]-PEPTIDE CYCLOTRANSFERASE AND […]-PEPTIDE CYCLOTRANSFERASE LIKE PROTEIN” (Boehringer Ingelheim International GmbH, priority 2022, published 2024).
